{"source": "paper PMC10208276", "about": "“A Very Long-acting Exatecan and Its Synergism with DNA Damage Response Inhibitors” (Cancer Research Communications, 2023)", "key": {"[1]": {"tested_on": "BRCA1-deficient MX-1 TNBC xenografts", "assay": "Antitumor activity of PEG-Exa in the MX-1 murine xenograft, alone and combined with TLZ or VX970", "format": "in vivo, female scid mice", "text": "Animals were housed at Murigenics.\nTo assess the interaction of the drug combination, we used an additivity index determined as TGcalc/TGobsd where […] and TGcalc is the product of TGobsd values of the individual drugs. Here, an index <1 indicates infra-additive, an index of 1 indicates additivity and an index >1 indicates a supra-additive or synergistic interaction.\nWe measured the effects of a combination of PEG-Exa with the PARPi TLZ and the ATRi VX970 on growth of MX-1 xenografts. […] To assess the interaction of a drug combination, we used an additivity index ([28]) determined as TGcalc/TGobsd where TGcalc is the product of TGobsd values of the individual drugs and TGobsd is the observed tumor growth in the presence of both drug. Here, an index <1 indicates infra-additive, an index of 1 indicates additivity and an index >1 indicates a supra-additive or synergistic interaction."}, "[2]": {"tested_on": "relapsed small cell lung cancer", "design": "method as in PMID 33848478", "conditions": "combination of topotecan with the ATRi VX-970, 5-day interval of a 21-day cycle; cited from earlier work"}, "[3]": {"conditions": "cited from earlier work"}, "tumor cells": {"tested_on": "tumor cells", "design": "method as in PMID 12234607", "conditions": "cited from earlier work"}, "drug-efflux pumps": {"tested_on": "drug-efflux pumps", "conditions": "cited from earlier work"}, "[4]": {"tested_on": "BRCA1-deficient MX-1 TNBC xenografts", "design": "method as in PMID 9685056", "conditions": "total dose of 25 and 75 mg (57 and 170 μmol)/kg, four times at 4-day intervals, at 28 days; cited from earlier work"}, "[5]": {"tested_on": "patient-derived triple-negative breast cancer (TNBC) xenografts", "design": "method as in PMID 32075943", "conditions": "cited from earlier work"}, "[6]": {"conditions": "VX970 64 μmol/kg PO, 4 consecutive days a week, alone"}, "[7]": {"conditions": "single intraperitoneal doses of 10 and 15 μmol/kg"}}, "note": "“Also recorded” adds a separate entry of the source. Like-named read-outs stand apart in the source and are kept apart here.", "data": [{"compound": "Cn1ncnc1[C@H]1c2n[nH]c(=O)c3cc(F)cc(c23)N[C@@H]1c1ccc(F)cc1", "note": "[TLZ, talazoparib]", "values": [{"measurement": "TGobsd", "setting": "[1]; 0.4 μmol (0.15 mg)/kg orally every day, Fig. 4A", "result": 0.71}]}, {"compound": "CNCc1ccc(-c2cc(-c3nc(-c4ccc(S(=O)(=O)C(C)C)cc4)cnc3N)on2)cc1", "note": "[VX970]", "values": [{"measurement": "AUC of median MX-1 Tumor volume", "setting": "[1]; VX970 16 μmol/kg alone", "result": "0.98 Fraction of vehicle control"}, {"measurement": "AUC of median MX-1 Tumor volume", "setting": "[1]; VX970 32 μmol/kg alone", "result": "0.96 Fraction of vehicle control"}, {"measurement": "TGI", "setting": "[1]; [6]", "result": 0}, {"measurement": "TGobsd, AUC of median MX-1 Tumor volume", "setting": "[1]; [6]", "result": "1.04 Fraction of vehicle control"}, {"measurement": "effect on growth of MX-1 xenografts", "setting": "[1]; VX970 alone, 64 μmol/kg for 4 consecutive days a week", "result": "do not affect tumor growth; also recorded: no effect"}]}, {"compound": "PEG40kDa-[exatecan]4 (Mod = 4-Cl-C6H4-SO2-) [3A]", "values": [{"measurement": "potency in growth suppression relative to PLX038A (PEG-SN-38)", "setting": "[1]; […] PEG-Exa nearly identical to 15 μmol/kg PLX038A", "result": "approximately 6 fold"}, {"measurement": "dose lower than dose of free Exa required to suppress MX-1 xenografts", "setting": "[1]; single 10 μmol/kg versus total 57 μmol/kg free Exa (ref 26)", "result": 6, "unit": "fold"}, {"measurement": "dose lower than dose of free Exa required to suppress MX-1 xenografts", "setting": "[1]; single 10 μmol/kg versus total 170 μmol/kg free Exa (ref 26)", "result": 18, "unit": "fold"}, {"measurement": "duration of tumor growth suppression", "setting": "[1]; single dose of 10 μmol/kg", "result": "over 40 days"}, {"measurement": "tumor growth of MX-1 xenografts", "setting": "[1]; single dose of 10 μmol/kg", "result": "complete suppression of tumor growth"}, {"measurement": "duration of complete growth inhibition", "setting": "[1]; [7]", "result": "> 48", "unit": "days"}, {"measurement": "growth of tumors", "setting": "[1]; [7]", "result": "complete growth inhibition"}]}, {"compound": "CC[C@@]1(O)C(=O)OCc2c1cc1n(c2=O)Cc2cc3c(CN(C)C)c(O)ccc3nc2-1", "note": "[topotecan]", "values": [{"measurement": "ORR", "setting": "[2]", "result": 36, "unit": "%"}]}, {"compound": "CCc1c2c(nc3ccc(O)cc13)-c1cc3c(c(=O)n1C2)COC(=O)[C@]3(O)CC", "note": "[SN-38]", "values": [{"measurement": "apparent t1/2", "setting": "[3]; SN-38 formed from CPT-11", "result": "approximately 12 hours"}]}, {"compound": "CC[C@@]1(O)C(=O)OCc2c1cc1n(c2=O)Cc2c-1nc1cc(F)c(C)c3c1c2[C@@H](N)CC3", "note": "[Exa, exatecan]", "values": [{"measurement": "t1/2", "setting": "[3]; in humans", "result": "approximately 10 hours"}, {"measurement": "increase of inhibitory potency upon prolonged exposure", "setting": "tumor cells", "result": "about 80 fold"}, {"measurement": "substrate for drug-efflux pumps", "setting": "drug-efflux pumps", "result": "does not appear to be a substrate"}, {"measurement": "effect on MX-1 TNBC xenografts", "setting": "[4]", "result": "regression"}]}, {"compound": "CCc1c2c(nc3ccc(OC(=O)N4CCC(N5CCCCC5)CC4)cc13)-c1cc3c(c(=O)n1C2)COC(=O)[C@]3(O)CC", "note": "[irinotecan]", "values": [{"measurement": "responsive xenografts", "setting": "[5]; xenografts containing both biomarkers", "result": 100, "unit": "%"}, {"measurement": "response rate", "setting": "[5]; xenografts with BRCAness", "result": 50, "unit": "%"}, {"measurement": "response rate", "setting": "[5]; xenografts with high SLFN11", "result": 75, "unit": "%"}]}]}
